Measurements: ChEMBL document CHEMBL2034921, “5-(5-(6-[(11)C]methyl-3,6-diazabicyclo[3.2.0]heptan-3-yl)pyridin-2-yl)-1H-indole as a potential PET radioligand for imaging cerebral α7-nAChR in mice” (Bioorg Med Chem, 2012)

Assays:
Assay type in all cases: ADME, organism-based; call rule not given here
Striatum = experiment: Biodistribution in CD1 mouse striatum at 0.1 mCi, iv at 30 mins by gamma counting; conditions: in vivo, 0.5 h
Mus musculus [1] = experiment: Biodistribution in CD1 mouse frontal cortex at 3.7 MBq, iv after 90 mins in presence of 0.5 mg/kg, sc of PHA543613; set-up: dose 0.5 mg/kg, route intravenous; conditions: in vivo, 1.5 h
Hippocampus [2] = experiment: Biodistribution in CD1 mouse hippocampus at 3.7 MBq, iv after 90 mins in presence of 0.5 mg/kg, sc of PHA543613; set-up: dose 0.5 mg/kg, route intravenous; conditions: in vivo, 1.5 h
Thalamus = experiment: Biodistribution in CD1 mouse thalamus at 0.1 mCi, iv at 30 mins by gamma counting; conditions: in vivo, 0.5 h
Hippocampus [3] = experiment: Biodistribution in CD1 mouse hippocampus at 0.1 mCi, iv at 30 mins by gamma counting; conditions: in vivo, 0.5 h
Mus musculus [4] = experiment: Biodistribution in CD1 mouse frontal cortex at 0.1 mCi, iv at 30 mins by gamma counting; conditions: in vivo, 0.5 h

[11CH3]N1CC2CN(c3ccc(-c4ccc5[nH]ccc5c4)nc3)CC21 (racemic)
Drug uptake (Striatum): Active | Drug uptake (Mus musculus [1]): Not Active | Drug uptake (Hippocampus [2]): Not Active | Drug uptake (Thalamus): Active | Drug uptake (Hippocampus [3]): Active | Drug uptake (Mus musculus [4]): Active
